The source of these data is PMC5679075 (Nature, 2017).

Some results are limits rather than exact numbers.

In this test the target is T1, LepI (Aspergillus flavus, UniProt B8NJH3).
T1 sequence (B8NJH3 1-387): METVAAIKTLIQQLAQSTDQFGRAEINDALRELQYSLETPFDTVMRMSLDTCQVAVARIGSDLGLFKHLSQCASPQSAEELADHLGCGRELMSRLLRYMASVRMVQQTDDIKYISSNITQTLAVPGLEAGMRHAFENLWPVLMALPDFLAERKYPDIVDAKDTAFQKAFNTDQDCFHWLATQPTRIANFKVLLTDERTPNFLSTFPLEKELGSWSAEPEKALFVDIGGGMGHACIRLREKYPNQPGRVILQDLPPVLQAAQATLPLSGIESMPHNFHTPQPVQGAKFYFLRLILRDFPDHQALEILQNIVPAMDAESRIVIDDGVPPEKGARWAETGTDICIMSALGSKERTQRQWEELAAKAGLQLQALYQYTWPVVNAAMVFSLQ
The experiment in a line: HPLC time course, inhibition of retro-Claisen rearrangement. The format is biochemical. The conditions noted are these: read-out: % inhibition at 250 μM.

Regarding `Nc1ncnc2c1ncn2[C@@H]1O[C@H](CSCC[C@H](N)C(=O)O)[C@@H](O)[C@H]1O` [SAH], the inhibition (commonly the relative decrease from the control value, in per cent) at 250 µM is above 90%.
